According to publication PMC7765930, “Antiproliferative Phenanthrenes from Juncus tenuis: Isolation and Diversity-Oriented Semisynthetic Modification” (Molecules, 2020):
Read-outs that look alike come from different tables or passages of the source.

Key:
tubulin = test system: tubulin; set-up: method as in PMID 31005716; conditions: at 200 µM; cited from earlier work
[1] = test system: normal skin fibroblasts CCD966SK; set-up: method as in PMID 31005716; conditions: even at higher concentrations; cited from earlier work
[2] = test system: cisplatin-resistant human ovarian cancer cell line A2780cis; experiment: MTT antiproliferative assay, A2780cis; type: cell-based; conditions: 72 h, 100–0.19 μM, read-out: IC50 (µM) ± SD A2780cis
Protocol: (§1) Breast cancer cell line MCF-7 (ATCC® HTB-22) and the drug-resistant subline of the human breast cancer MCF-7 (ECACC 86012803; KCR) were purchased from LGC Promochem (Teddington, UK). Both cell lines were cultured in Eagle’s Minimal Essential Medium (EMEM, containing 4.5 g/L glucose) supplemented with a non-essential amino acid mixture, a selection of vitamins, and 10% heat-inactivated fetal bovine serum. In every third passage, 0.56 µg/mL doxorubicin was added to the medium, in order to maintain the ABCB1 (P-glycoprotein) expression in KCR cells. A2780 human ovarian cancer cell line (ECACC, European Collection of Authentical Cell Culture, Sigma Cat.no. 93112519) was purchased from Merck KGaA (Darmstadt, Germany). The cisplatin-resistant human ovarian cancer cell line A2780cis (ECACC European Collection of Authentical Cell Culture, Sigma Cat.no. 93112517) was purchased from Merck KGaA (Darmstadt, Germany). The human ovarian cancer cell lines were cultured in RPMI 1640 medium supplemented with 10% heat-inactivated fetal bovine serum. […] HeLa (ATCC® CCL-2™) human cervix carcinoma cell line was purchased from LGC Promochem (Teddington, UK). The cells were cultured in Eagle’s Minimal Essential Medium (EMEM, containing 4.5 g/L glucose) supplemented with a non-essential amino acid mixture, a selection of vitamins, and 10% heat-inactivated fetal bovine serum. MRC-5 human embryonal lung fibroblast cell line (ATCC® CCL-171) was purchased from LGC Promochem, Teddington, UK. The cell line was cultured in Eagle’s Minimal Essential Medium (EMEM, containing 4.5 g/L glucose) supplemented with a non-essential amino acid mixture, a selection of vitamins, and 10% heat-inactivated fetal bovine serum. HTB-26 breast adenocarcinoma cell line was purchased from LGC Promochem, Teddington, UK. The cell line was cultured in RPMI 1640 medium supplemented with 10% heat-inactivated fetal bovine serum. T-47D (ATCC® HTB-133™) ductal carcinoma cell line was purchased from LGC Promochem, Teddington, UK. The cells were cultured in RPMI 1640 medium supplemented with 10% heat-inactivated fetal bovine serum, 2 mM L-glutamine, 1 mM Na-pyruvate, and 100 mM Hepes. All of the cells were incubated at 37 °C, in a 5% CO2 and 95% air atmosphere.
(§2) The antiproliferative effect of the compounds was determined on human breast (MCF-7, KCR, T47D, and HTB-26), cervical (HeLa), and ovarian (A2780 and A2780cis) cancer cells, and on MRC-5 (human embryonic lung fibroblast) cell lines. The adherent cells were cultured in 96-well flat-bottomed microtiter plates, using EMEM supplemented with 10% heat-inactivated fetal bovine serum or RPMI 1640 supplemented with 10% heat-inactivated fetal bovine serum, respectively. The density of the cells was adjusted to 6 × 10^3 cells in 100 μL per well, the cells were seeded for 24 h at 37 °C, with 5% CO2, and then the medium was removed from the plates, and fresh medium (100 μL per well) was added to the cells. The effects of increasing concentrations of compounds on cell proliferation were tested in 96-well flat-bottomed microtiter plates. The compounds were diluted in the appropriate medium; the dilutions of compounds were performed in separate plates and then added to the cells. The starting concentration of the compounds was 100 μM, and two-fold serial dilution was performed (concentration range: 100–0.19 μM). The culture plates were incubated at 37 °C for 72 h; at the end of the incubation period, 20 μL of MTT (thiazolyl blue tetrazolium bromide, Sigma) solution (from a stock solution of 5 mg/mL) was added to each well. After incubation at 37 °C for 4 h, 100 μL of sodium dodecyl sulfate (SDS) (Sigma) solution (10% in 0.01 M HCI) was added to each well, and the plates were further incubated, at 37 °C, overnight. Cell growth was determined by measuring the optical density (OD) at 540/630 nm, with a Multiscan EX ELISA reader (Thermo Labsystems, Cheshire, WA, USA). […]

[3] = test system: HTB-26 breast adenocarcinoma cell line; experiment: MTT antiproliferative assay, HTB-26; type: cell-based, human; conditions: 100–0.19 μM, read-out: IC50 (µM) ± SD HTB-26
Protocol: as §1, §2

[4] = test system: A2780 human ovarian cancer cell line; experiment: MTT antiproliferative assay, A2780; type: cell-based; conditions: 100–0.19 μM, read-out: IC50 (µM) ± SD A2780
Protocol: as §1, §2

caspase-3 = test system: caspase-3; set-up: method as in PMID 31005716; conditions: cited from earlier work
[5] = test system: Breast cancer cell line MCF-7; experiment: MTT antiproliferative assay, MCF-7; type: cell-based, human; conditions: for IC50: MTT assay, 72 h, 100–0.19 μM, read-out: IC50 (µM) ± SD MCF-7
Protocol: as §1, §2

[6] = test system: G2/M and subG1 cell cycle phase; set-up: method as in PMID 31005716; conditions: even at lower concentrations; cited from earlier work
HeLa cells = test system: HeLa cells; set-up: method as in PMID 30127296, PMID 31005716; conditions: previously described, read-out: IC50, antiproliferative activity on HeLa cells; cited from earlier work
[7] = test system: KCR, drug-resistant subline of the human breast cancer MCF-7; experiment: MTT antiproliferative assay, KCR; type: cell-based; conditions: 100–0.19 μM, read-out: IC50 (µM) ± SD KCR
Protocol: as §1, §2

SMILES	IC50 ([2]; Homo sapiens, A2780cis)	IC50 ([3]; Homo sapiens, HTB26, 72 h)	IC50 ([4]; Homo sapiens, A2780, 72 h)	IC50 ([5]; Homo sapiens, MCF7, 72 h)	IC50 ([7]; Homo sapiens, MCF7, 72 h)	IC50 [2]	IC50 ([3]; 72 h)	IC50 ([4]; 72 h)	IC50 [5]	IC50 ([7]; 72 h)	tubulin polymerization (tubulin)	toxicity on normal skin fibroblasts CCD966SK [1]	caspase-3 activity (caspase-3)	number of cells in the G2/M and subG1 cell cycle phase [6]	IC50 (HeLa cells)	selectivity against MCF-7 cells over non-tumoral MRC-5 cells ([5]; ratio of IC50 MRC-5 / MCF-7)
C=Cc1c(C)c(O)cc2c1-c1ccc(O)c(C)c1CC2 [juncusol]	37.1 ± 2.8 µM	41.7 ± 3.5 µM	23.8 ± 1.3 µM	37.1 ± 1.1 µM	35.8 ± 1.7 µM						decreased	nontoxic	significant and concentration-dependent increase	increased	950 nM	
C=Cc1cc(O)cc2c1-c1ccc(O)c(C)c1CC2 [effusol]	30.4 ± 0.4 µM	57 ± 2.7 µM	33.1 ± 3.1 µM	48.6 ± 3.4 µM	39.3 ± 1.6 µM										3680 nM	
C=CC1=CC(=O)C=C2CCC3=C(C=CC(=O)C3(C)OC)C12OC (stereo not shown) [Compound 3]	10.9 ± 2.2 µM	10.9 ± 0.9 µM	8.6 ± 0.5 µM	5.8 ± 0.2 µM	18.9 ± 1.4 µM											ca. 2.1 fold
N.N.[Cl][Pt][Cl] [Cisplatin, cisplatin, reference compound]						7.3 ± 0.2 µM	20.1 ± 2.3 µM	3.6 ± 0.3 µM	1.4 ± 1.1 µM	6.7 ± 0.4 µM						

More lines, main results first:

IC50 ([2]; Homo sapiens, A2780cis)	IC50 ([3]; Homo sapiens, HTB26, 72 h)	IC50 ([4]; Homo sapiens, A2780, 72 h)	IC50 ([5]; Homo sapiens, MCF7, 72 h)	IC50 ([7]; Homo sapiens, MCF7, 72 h)	IC50 [2]	IC50 ([3]; 72 h)	IC50 ([4]; 72 h)	IC50 [5]	IC50 ([7]; 72 h)	SMILES	tubulin polymerization (tubulin)	toxicity on normal skin fibroblasts CCD966SK [1]	caspase-3 activity (caspase-3)	number of cells in the G2/M and subG1 cell cycle phase [6]	IC50 (HeLa cells)	selectivity against MCF-7 cells over non-tumoral MRC-5 cells ([5]; ratio of IC50 MRC-5 / MCF-7)
22.5 ± 0.2 µM	16.1 ± 0.2 µM	25.2 ± 1.8 µM	11.7 ± 0.7 µM	23.5 ± 0.8 µM						C=CC1=CC(=O)C=C2CCC3=C(C=CC(=O)C3(C)OCC)C12OCC (stereo not shown) [Compound 4a]						
					22.1 ± 1.6 µM	20.1 ± 1.1 µM	22 ± 2 µM	10.2 ± 0.1 µM	29.4 ± 0.9 µM	C=CC1=CC(=O)C=C2CCC3=C(C=CC(=O)C3(C)OCC)C12OCC (stereo not shown) [Compound 4b]						
					38 ± 4.6 µM	45.8 ± 3.2 µM	39.4 ± 3.1 µM	41 ± 0.9 µM	44.2 ± 2.6 µM	C=CC1=C(C)C(=O)C=C2CCC3=C(C=CC(=O)C3(C)OCC)C21OCC (stereo not shown) [Compound 2b]						
88.2 ± 3.1 µM	74.3 ± 3.6 µM	80.3 ± 3 µM	52.1 ± 4.8 µM	> 100 µM						C=CC1=C(C)C(=O)C=C2CCC3=C(C=CC(=O)C3(C)OC)C21OC (stereo not shown) [Compound 1b]						
62.9 ± 1.7 µM		66 ± 4.4 µM	80.5 ± 3.5 µM			94.3 ± 2 µM			> 100 µM	C=CC1=C(C)C(=O)C=C2CCC3=C(C=CC(=O)C3(C)OCC)C21OCC (stereo not shown) [Compound 2a]						
